In the supplement of paper PMC10307832:

Experiments:
Assay in all cases: relative viability (nuclei count vs DMSO), 5 days (fraction); higher = more cells survive
[1] = compound: COc1cc(N2CCC(N3CCN(C)CC3)CC2)ccc1Nc1ncc(Cl)c(Nc2ccccc2S(=O)(=O)C(C)C)n1 [NVP-TAE684] + C[C@@H](Oc1cc(-c2cnn(C3CCNCC3)c2)cnc1N)c1c(Cl)ccc(F)c1Cl [Crizotinib] (partner 1 µM)
In short: (§1)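 After 5 days of treatment, lung cancer cells in 1536-well plates were fixed and stained in a single step (final 0.05% Triton X-100, 1% formaldehyde, 1 ug/ml Hoechst) and their nuclei counted on 4× images. Treatment had been applied by pin tool the day after seeding as one drug alone or as a fixed anchor-drug dose with five library-drug doses (not always all listed) in √10 steps. Relative viability is the nuclei count of treated wells divided by that of vehicle wells, and values are medians of duplicate plates.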

[2] = compound: C1=CC=C2C(=C1)N=C(S2)C(C#N)C3=NC(=NC=C3)NCCC4=CN=CC=C4 + CC(C)C[C@H](NC(=O)[C@H](Cc1ccccc1)NC(=O)c1cnccn1)B(O)O [Bortezomib] (partner 0.002 µM)
In short: as §1

[3] = compound: COc1cc(N2CCC(N3CCN(C)CC3)CC2)ccc1Nc1ncc(Cl)c(Nc2ccccc2S(=O)(=O)C(C)C)n1 [NVP-TAE684] + Nc1nc2[nH]cc(CCc3ccc(C(=O)N[C@@H](CCC(=O)O)C(=O)O)cc3)c2c(=O)[nH]1 [Pemetrexed] (partner 0.2 µM)
In short: as §1

[4] = compound: COc1cc2/c(=N/c3ccc(Br)cc3F)nc[nH]c2cc1OCC1CCN(C)CC1 [Vandetanib] + O=C(c1cc(Cc2n[nH]c(=O)c3ccccc23)ccc1F)N1CCN(C(=O)C2CC2)CC1 [Olaparib] (partner 8 µM)
In short: as §1

UMC-11
relative viability ([1]; first compound 0.2 µM): 0.45 | relative viability ([1]; first compound 0.6325 µM): 0.459 | relative viability ([1]; first compound 2 µM): 0.145 | relative viability ([2]; first compound 0.005 µM): 0.458 | relative viability ([2]; first compound 0.01581 µM): 0.695 | relative viability ([2]; first compound 0.05 µM): 0.901 | relative viability ([2]; first compound 0.1581 µM): 0.875 | relative viability ([2]; first compound 0.5 µM): 0.488 | relative viability ([3]; first compound 0.2 µM): 0.736 | relative viability ([3]; first compound 0.6325 µM): 0.735 | relative viability ([3]; first compound 2 µM): 0.347 | relative viability ([4]; first compound 0.02 µM): 0.707 | relative viability ([4]; first compound 0.06325 µM): 0.35 | relative viability ([4]; first compound 0.2 µM): 0.473 | relative viability ([4]; first compound 0.6325 µM): 0.315 | relative viability ([4]; first compound 2 µM): 0.475
